The values below come from patent US7045545B1, “Aminoalkylbenzofurans as serotonin (5-HT(2c)) agonists” (Eli Lilly and Company, priority 1999, dated 2006).

Take `CC(N)Cc1c(F)ccc2ccoc12.O=C(O)C(=O)O` (centres unmarked): the melting point (usually the temperature, or range, at which the solid turns liquid) is 200 to 202 °C.
`C[C@H](N)Cc1cc(F)cc2cc(Br)oc12.Cl` returned a melting point of 202 to 205 °C.
In the case of `CC(N)Cc1cc([N+](=O)[O-])cc2ccoc12.Cl` (centres unmarked), the melting point is 216 to 217 °C (dec.).
In the case of `Cc1coc2c(CC(C)N)cc(F)cc12.O=C(O)C(=O)O` (centres unmarked) it was 201 to 202 °C; in that of `CC(N)Cc1ccc(F)c2ccoc12.O=C(O)C(=O)O` (centres unmarked), 172 to 174 °C.
